{"source": "paper PMC3147111", "about": "(European journal of immunology, 2010)", "biological_target": "DRB1*1501 (Homo sapiens, UniProt P01903+P01911)", "experiment": "biochemical", "format": "binding", "data": [{"compound": "CC(C)C[C@H](NC(=O)[C@H](Cc1ccc(O)cc1)NC(=O)[C@H](C)NC(=O)[C@H](CCCNC(=N)N)NC(=O)[C@H](CC(C)C)NC(=O)[C@H](CCC(N)=O)NC(=O)[C@H](CCC(=O)O)NC(=O)[C@H](C)NC(=O)[C@@H](N)CCC(=O)O)C(=O)N[C@@H](CC(=O)O)C(=O)NCC(=O)N[C@H](C(=O)NCC(=O)N[C@H](C(=O)N[C@@H](CCC(=O)O)C(=O)O)C(C)C)[C@@H](C)O", "note": "[A3 152–166]", "values": [{"measurement": "IC50", "result": 48, "unit": "nM"}]}]}
